Assay results reported in patent US10821151B2, “Compositions and methods for treating cancer and persistent viral infections” (SUSAVION BIOSCIENCES, INC., priority 2015, dated 2020).
Positions of bridges follow the written chain, without caps; N, C: chain ends. Chains are numbered I, II in the order given. No end group written: not given here.

Legend:
cells = assay: acridine orange / ethidium bromide cytotoxicity assay; assay type: cell-based; details: 1 mM
Experimental: (§1) Human PBMCs were incubated 3 days with peptides and then assay plates were stained with the soluble tetrazolium-based dye MTS to determine cell viability. The mitochondrial enzymes of metabolically active cells metabolize MTS to yield a colored formazan product. After an incubation period of 4 to 6 h at 37° C., the plates were read spectrophotometrically. Cells treated with peptide SVH1C alone or with diluted anti-HIV antiserum were 100±2% viable at peptide concentrations of 1 nM to 1 μM. In another assay to determine cytotoxicity, cells were doubly stained with acridine orange and ethidium bromide. In this assay, viable cells fluoresce green while dead cells fluoresce red.

MTS cell viability assay = assay type: cell-based; details: human, human PBMCs; 3 days, peptide alone or with diluted anti-HIV antiserum, 1 nM to 1 μM
Experimental: as §1

NKG2D = biological target: T1, NKG2D (Homo sapiens, UniProt P26718); assay: solid-phase binding assay with Fc-chimeric NKG2D; details: for inhibition of binding of SVH1C to NKG2D: fetuin 5, 10, 30 μM, sialyllactose 12, 20, 40 μM
T1 sequence (P26718 78-216 limits assumed): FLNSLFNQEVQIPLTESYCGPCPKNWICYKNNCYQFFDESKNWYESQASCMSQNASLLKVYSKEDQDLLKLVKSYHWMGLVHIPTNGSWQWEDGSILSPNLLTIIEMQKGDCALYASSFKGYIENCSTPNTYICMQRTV

ovarian cancer cell line = assay: mouse model of ovarian cancer, ascites monitored by body weight
Experimental: Body weights of individual mice were measured during treatment with 1 or 0.1 nmole/g doses of SV6D (SEQ ID NO:5) injected subcutaneously every other day.
In a mouse model of ovarian cancer, a cancer cell line was implanted into the peritoneal cavity. The cells form tumors and in time also release malignant cells into the cavity. The activity of SV6D to treat ovarian cancer was tested by alternate-day injections of 1 and 0.1 nanomole per gram of SV6D. Development of ascites was monitored by an increase in body weight of the animals.

Siglec-1 = Siglec-1 (Homo sapiens, UniProt Q9BZZ2); assay: solid-phase binding assay
Chain of Siglec-1 (Q9BZZ2 20-1709): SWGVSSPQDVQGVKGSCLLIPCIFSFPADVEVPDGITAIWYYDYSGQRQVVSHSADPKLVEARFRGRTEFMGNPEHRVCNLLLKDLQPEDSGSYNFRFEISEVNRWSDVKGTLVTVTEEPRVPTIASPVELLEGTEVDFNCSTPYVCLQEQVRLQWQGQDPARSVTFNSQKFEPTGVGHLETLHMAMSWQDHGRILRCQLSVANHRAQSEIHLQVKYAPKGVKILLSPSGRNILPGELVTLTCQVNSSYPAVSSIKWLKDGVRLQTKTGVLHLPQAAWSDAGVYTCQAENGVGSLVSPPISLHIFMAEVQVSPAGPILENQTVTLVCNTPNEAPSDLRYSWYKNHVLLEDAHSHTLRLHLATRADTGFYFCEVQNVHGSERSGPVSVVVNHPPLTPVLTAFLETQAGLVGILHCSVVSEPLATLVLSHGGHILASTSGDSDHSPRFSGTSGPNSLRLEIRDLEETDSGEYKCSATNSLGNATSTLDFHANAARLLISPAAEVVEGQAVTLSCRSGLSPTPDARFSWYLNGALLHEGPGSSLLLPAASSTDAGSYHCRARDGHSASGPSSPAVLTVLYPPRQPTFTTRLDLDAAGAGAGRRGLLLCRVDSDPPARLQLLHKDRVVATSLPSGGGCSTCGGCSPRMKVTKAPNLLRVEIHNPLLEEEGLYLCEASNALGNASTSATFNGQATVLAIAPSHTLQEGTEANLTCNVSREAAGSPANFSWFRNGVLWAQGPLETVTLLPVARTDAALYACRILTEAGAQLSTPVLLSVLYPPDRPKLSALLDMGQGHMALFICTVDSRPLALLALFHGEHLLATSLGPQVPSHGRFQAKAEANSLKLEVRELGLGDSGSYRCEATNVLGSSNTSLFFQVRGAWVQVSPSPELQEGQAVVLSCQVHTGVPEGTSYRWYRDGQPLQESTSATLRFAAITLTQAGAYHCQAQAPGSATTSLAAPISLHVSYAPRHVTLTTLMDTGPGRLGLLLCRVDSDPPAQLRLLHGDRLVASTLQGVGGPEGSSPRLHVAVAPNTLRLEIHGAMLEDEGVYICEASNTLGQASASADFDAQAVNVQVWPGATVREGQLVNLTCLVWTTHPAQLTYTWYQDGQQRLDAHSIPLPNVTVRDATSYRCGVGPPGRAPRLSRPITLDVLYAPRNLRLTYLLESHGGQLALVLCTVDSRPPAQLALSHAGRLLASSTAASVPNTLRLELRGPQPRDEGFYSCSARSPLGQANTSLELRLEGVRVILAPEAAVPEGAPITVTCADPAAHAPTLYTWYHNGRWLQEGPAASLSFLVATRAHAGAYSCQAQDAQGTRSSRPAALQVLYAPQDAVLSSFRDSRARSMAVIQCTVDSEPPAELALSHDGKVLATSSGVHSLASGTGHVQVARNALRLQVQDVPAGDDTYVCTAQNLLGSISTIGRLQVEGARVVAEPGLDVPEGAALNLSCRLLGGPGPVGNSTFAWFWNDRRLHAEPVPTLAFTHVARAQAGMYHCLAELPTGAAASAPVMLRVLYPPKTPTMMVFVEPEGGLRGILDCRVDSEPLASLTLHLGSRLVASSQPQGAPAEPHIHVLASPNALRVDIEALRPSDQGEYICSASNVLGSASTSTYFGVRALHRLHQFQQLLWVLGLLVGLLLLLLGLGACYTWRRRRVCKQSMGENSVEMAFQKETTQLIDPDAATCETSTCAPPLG
Experimental: (§2) The buffer in these assays was PBS containing 0.05% Tween-20. […] The receptors were Fc-chimeras and were assayed in protein A/G-coated microtiter wells.
(§3) Biotinylated peptides were then incubated with the receptors, the wells were stringently washed and the bound peptide was detected by binding of streptavidin conjugated with peroxidase.

dectin-1 = biological target: T2, dectin-1 (Homo sapiens, UniProt Q9BXN2); assay: solid-phase binding assay
T2 sequence (Q9BXN2 1-247): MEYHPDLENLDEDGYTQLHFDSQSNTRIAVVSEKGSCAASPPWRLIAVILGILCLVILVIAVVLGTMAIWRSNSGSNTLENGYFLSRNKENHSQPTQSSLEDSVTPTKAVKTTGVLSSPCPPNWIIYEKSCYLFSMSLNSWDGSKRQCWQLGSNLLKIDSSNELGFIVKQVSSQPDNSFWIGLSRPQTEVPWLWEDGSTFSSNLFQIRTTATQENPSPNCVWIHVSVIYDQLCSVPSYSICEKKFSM
Experimental: as §2, §3

ASGPR-1 = biological target: T3, ASGPR-1 (Homo sapiens, UniProt P07306); assay: solid-phase binding assay
T3 sequence (P07306 1-291): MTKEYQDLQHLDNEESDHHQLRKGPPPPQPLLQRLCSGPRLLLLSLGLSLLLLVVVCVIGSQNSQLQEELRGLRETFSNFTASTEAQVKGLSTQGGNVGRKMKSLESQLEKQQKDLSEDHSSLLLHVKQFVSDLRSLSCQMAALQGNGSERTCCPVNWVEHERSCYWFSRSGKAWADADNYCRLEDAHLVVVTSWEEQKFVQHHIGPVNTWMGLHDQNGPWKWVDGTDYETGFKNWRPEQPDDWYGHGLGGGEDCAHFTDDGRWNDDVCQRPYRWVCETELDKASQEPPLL
Experimental: as §2, §3

CLEC9a = CLEC9a (Homo sapiens, UniProt Q6UXN8); assay: solid-phase binding assay
Chain of CLEC9a (Q6UXN8 whole entry): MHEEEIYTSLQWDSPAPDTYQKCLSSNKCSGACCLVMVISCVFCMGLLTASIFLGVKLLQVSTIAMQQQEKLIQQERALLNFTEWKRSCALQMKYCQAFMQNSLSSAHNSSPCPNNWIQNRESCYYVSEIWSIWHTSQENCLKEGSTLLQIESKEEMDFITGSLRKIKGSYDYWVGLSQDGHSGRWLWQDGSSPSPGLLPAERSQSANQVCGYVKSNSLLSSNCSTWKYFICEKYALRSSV
Experimental: (§4) The buffer in these assays was PBS containing 0.05% Tween-20. […] The receptors were Fc-chimeras and were assayed in protein A/G-coated microtiter wells. Siglec-1 and CLEC10a contained a C-terminal His tag and were assayed in a separate experiment with Ni-coated wells. SEM was determined from four independent experiments run in duplicate. Inhibition by fetuin is shown by the average of two assays in which the glycoprotein was added at 10 μM (second, black bar) or 30 μM (third, light grey bar) in each receptor group. Binding was measured by a colorimetric assay of peroxidase.
(§5) The buffer in these assays was PBS containing 0.05% Tween-20. […] The receptors were Fc-chimeras and were assayed in protein A/G-coated microtiter wells. The assay was similar to that described under FIG. 7.
as §3

CLEC10a = biological target: T4, CLEC10a (Homo sapiens, UniProt Q8IUN9); assay: solid-phase binding assay
T4 sequence (Q8IUN9 1-316): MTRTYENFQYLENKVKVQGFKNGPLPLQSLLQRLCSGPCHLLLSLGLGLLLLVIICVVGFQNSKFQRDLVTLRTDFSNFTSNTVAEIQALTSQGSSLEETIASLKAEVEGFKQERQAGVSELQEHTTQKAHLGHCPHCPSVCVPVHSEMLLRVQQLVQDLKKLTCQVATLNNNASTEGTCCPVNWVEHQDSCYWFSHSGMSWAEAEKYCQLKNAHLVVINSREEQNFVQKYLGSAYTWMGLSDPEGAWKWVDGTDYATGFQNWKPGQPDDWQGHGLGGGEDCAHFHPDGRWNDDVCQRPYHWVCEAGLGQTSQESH
Experimental: as §4, §5, §3

langerin = langerin (Homo sapiens, UniProt Q9UJ71); assay: solid-phase binding assay
Chain of langerin (Q9UJ71 whole entry): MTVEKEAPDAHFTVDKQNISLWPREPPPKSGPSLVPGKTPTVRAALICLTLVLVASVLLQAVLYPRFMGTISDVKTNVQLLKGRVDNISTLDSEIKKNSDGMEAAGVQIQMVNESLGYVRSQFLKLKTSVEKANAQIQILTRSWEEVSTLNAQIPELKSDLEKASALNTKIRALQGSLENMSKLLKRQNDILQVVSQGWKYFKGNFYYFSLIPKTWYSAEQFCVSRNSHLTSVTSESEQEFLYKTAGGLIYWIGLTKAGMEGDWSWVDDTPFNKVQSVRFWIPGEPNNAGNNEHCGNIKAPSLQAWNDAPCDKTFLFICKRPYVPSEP
Experimental: as §2, §3

DC-SIGN = biological target: T5, DC-SIGN (Homo sapiens, UniProt Q9NNX6); assay: solid-phase binding assay
T5 sequence (Q9NNX6 1-404): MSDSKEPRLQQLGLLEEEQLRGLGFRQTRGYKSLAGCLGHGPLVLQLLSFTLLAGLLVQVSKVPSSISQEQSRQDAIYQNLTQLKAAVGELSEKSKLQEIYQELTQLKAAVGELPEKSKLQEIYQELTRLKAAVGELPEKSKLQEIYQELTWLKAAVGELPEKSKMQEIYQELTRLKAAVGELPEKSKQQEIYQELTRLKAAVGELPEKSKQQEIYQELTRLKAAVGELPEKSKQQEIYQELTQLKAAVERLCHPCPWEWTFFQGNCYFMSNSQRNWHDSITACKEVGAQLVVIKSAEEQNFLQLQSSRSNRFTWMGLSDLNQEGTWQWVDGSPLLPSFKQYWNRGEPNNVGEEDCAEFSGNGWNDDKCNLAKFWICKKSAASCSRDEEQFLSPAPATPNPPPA
Experimental: as §4, §5, §3

siglecs = assay: solid-phase binding assay, biotinylated peptide, streptavidin-peroxidase; details: fetuin added at 10 μM or 30 μM
Experimental: The buffer in these assays was PBS containing 0.05% Tween-20. […] The receptors were Fc-chimeras and were assayed in protein A/G-coated microtiter wells. Siglec-1 and CLEC10a contained a C-terminal His tag and were assayed in a separate experiment with Ni-coated wells. SEM was determined from four independent experiments run in duplicate. […] Binding was measured by a colorimetric assay of peroxidase.

Substance: I: NPSHPLSGGGGSKK-NH2 / II: NPSHPLSGGGGSK / III: NPSHPLSGGGGS / IV: NPSHPLSGGGGS (amide I:13-IV:C, I:14-II:C, II:13-III:C) [SVH1C, [NPSHPLSGGGGS]4K3-NH2]
- cytotoxicity (cells): did not exhibit cytotoxicity
- viability at 72 h (MTS cell viability assay): 100 ± 2%
- Kd (NKG2D): ~1000 nM

Substance: [NQHTPRGGGS]4K3-NH2 [SV6D]
- progression of ascites (ovarian cancer cell line): effectively inhibited
- binding to Siglec-1 (Siglec-1): not
- binding to dectin-1 (dectin-1): bound strongly
- binding to ASGPR-1 (ASGPR-1): bound strongly
- binding to CLEC9a (CLEC9a): not
- binding to CLEC10a (CLEC10a): bound strongly
- binding to langerin (langerin): bound strongly
- binding to DC-SIGN (DC-SIGN): not

Substance: fetuin
- inhibition of binding of SVH1C to NKG2D (NKG2D): inhibited
- inhibition of binding of SVH1C to siglecs (siglecs): inhibited

Substance: sialyllactose
- inhibition of binding of SVH1C to NKG2D (NKG2D): inhibited
